The structures appear in SMILES notation.

The text below walks through data of US20250368649A1, “TETRAHYDROPYRIDOPYRIMIDINE PAN-KRAS INHIBITORS” (Mirati Therapeutics, Inc., priority 2022, published 2025).

Assay [1] has as its target KRas WT (Homo sapiens, UniProt P01116). As to the kind of experiment: KRas binding assay (TR-FRET displacement), KRas WT. Particulars: TR-FRET displacement. Background: Time-resolved FRET reads energy transfer from a long-lived donor to a nearby acceptor.
Assay [2] has as its target KRas G12A (Homo sapiens, UniProt P01116, G12A). It is filed as binding. Particulars: TR-FRET displacement, read-out: Binding to KRas (IC50 nM) G12A.
In assay [3] the target is KRas G12C (Homo sapiens, UniProt P01116, G12C). Type of assay: binding. Particulars: TR-FRET displacement, read-out: Binding to KRas (IC50 nM) G12C.
Assay [4] concerns the target KRas G12S (Homo sapiens, UniProt P01116, G12S). Type of assay: binding. Particulars: TR-FRET displacement, read-out: Binding to KRas (IC50 nM) G12S.
Assay [5] deals with KRas G13D (Homo sapiens, UniProt P01116, G13D). Type of assay: binding. Particulars: TR-FRET displacement, read-out: Binding to KRas (IC50 nM) G13D.
Assay [6] addresses KRas Q61H (Homo sapiens, UniProt P01116, Q61H). As to the kind of experiment: KRas binding assay (TR-FRET displacement), KRas Q61H. Particulars: TR-FRET displacement.
For assay [7], the target named is KRas G12D (Homo sapiens, UniProt P01116, G12D). As to the kind of experiment: biochemical. Particulars: Binding to KRas (IC50 nM) G12D, TR-FRET displacement, KRas G12D.
Assay [8] addresses KRas G12V (Homo sapiens, UniProt P01116, G12V). As to the kind of experiment: biochemical. Particulars: Binding to KRas (IC50 nM) G12V, TR-FRET displacement, KRas G12V.

KRas G13D, sequence (P01116 1-169 isoform P01116-2 G13D): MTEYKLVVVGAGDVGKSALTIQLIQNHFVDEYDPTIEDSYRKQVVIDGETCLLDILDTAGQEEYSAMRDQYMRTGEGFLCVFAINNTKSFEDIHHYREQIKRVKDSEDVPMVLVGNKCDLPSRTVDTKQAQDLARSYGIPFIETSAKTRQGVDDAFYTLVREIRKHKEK
KRas Q61H, sequence (P01116 1-169 isoform P01116-2 Q61H): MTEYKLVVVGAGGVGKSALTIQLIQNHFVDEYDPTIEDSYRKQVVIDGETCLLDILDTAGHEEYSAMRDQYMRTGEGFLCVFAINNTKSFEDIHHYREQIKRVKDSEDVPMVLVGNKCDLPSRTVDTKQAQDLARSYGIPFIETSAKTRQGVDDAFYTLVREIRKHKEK
KRas G12A, sequence (P01116 1-169 isoform P01116-2 G12A): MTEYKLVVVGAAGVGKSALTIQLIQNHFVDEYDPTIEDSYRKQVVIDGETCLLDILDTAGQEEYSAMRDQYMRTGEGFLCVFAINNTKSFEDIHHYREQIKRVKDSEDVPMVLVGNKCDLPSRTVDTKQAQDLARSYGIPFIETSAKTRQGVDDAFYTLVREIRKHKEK
KRas G12S, sequence (P01116 1-169 isoform P01116-2 G12S): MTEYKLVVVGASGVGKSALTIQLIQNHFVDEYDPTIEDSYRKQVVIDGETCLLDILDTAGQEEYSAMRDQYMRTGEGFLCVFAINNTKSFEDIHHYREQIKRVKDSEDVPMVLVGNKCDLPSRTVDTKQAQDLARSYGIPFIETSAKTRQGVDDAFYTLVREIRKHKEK
KRas G12V, sequence (P01116 1-169 isoform P01116-2 G12V): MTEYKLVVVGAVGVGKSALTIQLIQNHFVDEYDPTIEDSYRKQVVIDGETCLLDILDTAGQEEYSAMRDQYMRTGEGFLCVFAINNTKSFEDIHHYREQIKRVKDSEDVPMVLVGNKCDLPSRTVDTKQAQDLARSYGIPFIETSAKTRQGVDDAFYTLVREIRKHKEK
KRas G12C, sequence (P01116 1-169 isoform P01116-2 G12C): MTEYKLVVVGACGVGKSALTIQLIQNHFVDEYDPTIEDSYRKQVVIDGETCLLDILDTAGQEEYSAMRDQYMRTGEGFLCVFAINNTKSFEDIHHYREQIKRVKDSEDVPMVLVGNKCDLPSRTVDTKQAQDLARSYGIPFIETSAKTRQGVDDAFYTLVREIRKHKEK
KRas WT, sequence (P01116 1-169 isoform P01116-2): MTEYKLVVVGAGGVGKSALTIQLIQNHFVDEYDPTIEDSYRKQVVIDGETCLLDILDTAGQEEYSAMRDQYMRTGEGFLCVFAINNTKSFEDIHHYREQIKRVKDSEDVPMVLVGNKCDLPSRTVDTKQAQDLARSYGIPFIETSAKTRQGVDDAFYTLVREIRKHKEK
KRas G12D, sequence (P01116 1-169 isoform P01116-2 G12D): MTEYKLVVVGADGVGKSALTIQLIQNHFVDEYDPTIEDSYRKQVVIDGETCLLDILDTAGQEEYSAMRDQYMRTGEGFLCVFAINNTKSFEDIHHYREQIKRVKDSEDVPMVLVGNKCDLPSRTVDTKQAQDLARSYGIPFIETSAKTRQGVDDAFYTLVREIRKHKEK

As usually defined, the IC50 is the concentration at which inhibition is half-maximal. As for `CCc1cccc2cccc(N3CCc4c(nc(OCC5(CN(C)C)CC5)nc4NCc4nnn(C(C)(C)C)n4)C3)c12` [Example 550, N-((2-(tert-butyl)-2H-tetrazol-5-yl)methyl)-2-((1-((dimethylamino)methyl)cyclopropyl)methoxy)-7-(8-ethylnaphthalen-1-yl)-5,6,7,8-tetrahydropyrido[3,4-d]pyrimidin-4-amine], the IC50 in assay [1] turned out to be 32400 nM; in assay [2], 33600 nM; in assay [3], 16300 nM; in assay [4], 28800 nM; in assay [5], 35300 nM; in assay [6] it was 27100 nM. The half-maximal inhibitory concentration (IC50) stood at 17600 nM in assay [7] and 8180 nM in assay [8].
`CCc1cccc2cccc(N3CCc4c(nc(OCC5(CN(C)C)CC5)nc4N(C)CC4CCC(=O)N4)C3)c12` (centres unmarked) [Example 551, 5-(((2-((1-((dimethylamino)methyl)cyclopropyl)methoxy)-7-(8-ethylnaphthalen-1-yl)-5,6,7,8-tetrahydropyrido[3,4-d]pyrimidin-4-yl)(methyl)amino)methyl)pyrrolidin-2-one]: the IC50 in assay [1] was found to be 6320 nM; in assay [2], 11700 nM; in assay [3] it was 6900 nM; in assay [4], 11900 nM; in assay [5] it was 9890 nM; in assay [6], 10700 nM. The IC50 in assay [7] is 18300 nM; in assay [8], 2520 nM.
On to `CCc1cccc2cccc(N3CCc4c(nc(OCC5(CN(C)C)CC5)nc4N4CCN(c5ccc(=O)[nH]n5)CC4)C3)c12` [Example 552, 6-(4-(2-((1-((dimethylamino)methyl)cyclopropyl)methoxy)-7-(8-ethylnaphthalen-1-yl)-5,6,7,8-tetrahydropyrido[3,4-d]pyrimidin-4-yl)piperazin-1-yl)pyridazin-3(2H)-one], for which the concentration for half-maximal inhibition (IC50) in assay [1] is 50400 nM; in assay [2] it was 51400 nM; in assay [3], 26100 nM; in assay [4], 51000 nM; in assay [5] it was over 100000 nM; in assay [6], 22900 nM. Moreover, the IC50 in assay [7] was 18400 nM; in assay [8], 5640 nM.
Turning to `CCc1cccc2cccc(N3CCc4c(nc(OCC5(CN(C)C)CC5)nc4N4CC(CO)C(c5cncn5C)C4)C3)c12` (centres unmarked) [Example 553, (1-(2-((1-((dimethylamino)methyl)cyclopropyl)methoxy)-7-(8-ethylnaphthalen-1-yl)-5,6,7,8-tetrahydropyrido[3,4-d]pyrimidin-4-yl)-4-(1-methyl-1H-imidazol-5-yl)pyrrolidin-3-yl)methanol], the IC50 was determined as 5060 nM in assay [1]; 2270 nM in assay [2]; 1580 nM in assay [3]; 3310 nM in assay [4]; 7560 nM in assay [5]; 7300 nM in assay [6]. In addition, the IC50 in assay [7] was 18500 nM; in assay [8], 2760 nM.
With `CCc1cccc2cccc(N3CCc4c(nc(OCC5(CN(C)C)CC5)nc4NCCc4c(C)n[nH]c4C)C3)c12` [Example 554, N-(2-(3,5-dimethyl-1H-pyrazol-4-yl)ethyl)-2-((1-((dimethylamino)methyl)cyclopropyl)methoxy)-7-(8-ethylnaphthalen-1-yl)-5,6,7,8-tetrahydropyrido[3,4-d]pyrimidin-4-amine], the IC50 in assay [1] came out at 2750 nM; in assay [2], 2420 nM; in assay [3], 803 nM; in assay [4], 1750 nM; in assay [5], 2660 nM; in assay [6] it was 1210 nM. The IC50 in assay [7] is 18600 nM; in assay [8] it was 3830 nM.
Consider `CCc1cccc2cccc(N3CCc4c(nc(OCC5(CN(C)C)CC5)nc4NCCN4CCNC4=O)C3)c12` [Example 555, 1-(2-((2-((1-((dimethylamino)methyl)cyclopropyl)methoxy)-7-(8-ethylnaphthalen-1-yl)-5,6,7,8-tetrahydropyrido[3,4-d]pyrimidin-4-yl)amino)ethyl)imidazolidin-2-one], for which the IC50 is 12200 nM in assay [1]; 11900 nM in assay [2]; 9190 nM in assay [3]; 15000 nM in assay [4]; 16400 nM in assay [5]; 19700 nM in assay [6]. Besides, the figures for the IC50 in assay [7] and in assay [8] were 19000 nM and 6180 nM, respectively.
`CCc1cccc2cccc(N3CCc4c(nc(OCC5(CN(C)C)CC5)nc4NCc4ncn(-c5ccccc5)n4)C3)c12` [Example 556, 2-((1-((dimethylamino)methyl)cyclopropyl)methoxy)-7-(8-ethylnaphthalen-1-yl)-N-((1-phenyl-1H-1,2,4-triazol-3-yl)methyl)-5,6,7,8-tetrahydropyrido[3,4-d]pyrimidin-4-amine]: the IC50 in assay [1] amounted to 22900 nM; in assay [2], 26600 nM; in assay [3], 16800 nM; in assay [4] it was 26400 nM; in assay [5], 31700 nM; in assay [6], 44100 nM. Moreover, the IC50 in assay [7] came to 19900 nM; in assay [8], 7060 nM.
`CCc1cccc2cccc(N3CCc4c(nc(OCC5(CN(C)C)CC5)nc4N4CCOC(c5nccs5)C4)C3)c12` [Example 557, rel-(R)-1-(1-(((7-(8-(dimenaphthalen-1-yl)-4-(2-(thiazol-2-yl)morpholino)-5,6,7,8-tetrahydropyrido[3,4-d]pyrimidin-2-yl)oxy)methyl)cyclopropyl)-N,N-dimethylmethanamine]: the IC50 is 67900 nM in assay [1]; 71600 nM in assay [2]; 44300 nM in assay [3]; 83200 nM in assay [4]; 96200 nM in assay [5]; 77100 nM in assay [6]. The IC50 is 20800 nM in assay [7] and 5870 nM in assay [8].
Turning to `CCc1cccc2cccc(N3CCc4c(nc(OCC5(CN(C)C)CC5)nc4N(C)CCn4ccnc4)C3)c12` [Example 558, N-(2-(1H-imidazol-1-yl)ethyl)-2-((1-((dimethylamino)methyl)cyclopropyl)methoxy)-7-(8-ethylnaphthalen-1-yl)-N-methyl-5,6,7,8-tetrahydropyrido[3,4-d]pyrimidin-4-amine], the IC50 in assay [1] worked out at 978 nM; in assay [2] it was 825 nM; in assay [3] it was 492 nM; in assay [4], 505 nM; in assay [5], 1390 nM; in assay [6], 1710 nM. Further, the 50% inhibitory concentration (IC50) in assay [7] is 23000 nM; in assay [8], 2920 nM.
With `CCc1cccc2cccc(N3CCc4c(nc(OCC5(CN(C)C)CC5)nc4N4CCCCC(CCOC)C4)C3)c12` (centres unmarked) [Example 559, 1-(1-(((7-(8-ethylnaphthalen-1-yl)-4-(3-(2-methoxyethyl)azepan-1-yl)-5,6,7,8-tetrahydropyrido[3,4-d]pyrimidin-2-yl)oxy)methyl)cyclopropyl)-N,N-dimethylmethanamine], the IC50 in assay [1] stood at 11900 nM; in assay [2], 11900 nM; in assay [3], 12000 nM; in assay [4], 29400 nM; in assay [5] it was 45100 nM; in assay [6], 23300 nM. For the same compound, the figures for the IC50 in assay [7] and in assay [8] were 24700 nM and 9180 nM, respectively.
As to `CCc1cccc2cccc(N3CCc4c(nc(OCC5(CN(C)C)CC5)nc4N(C)CC4CC(F)C4)C3)c12` (centres unmarked) [Example 560, 2-((1-((dimethylamino)methyl)cyclopropyl)methoxy)-7-(8-ethylnaphthalen-1-yl)-N-((3-fluorocyclobutyl)methyl)-N-methyl-5,6,7,8-tetrahydropyrido[3,4-d]pyrimidin-4-amine], the IC50 came to 6020 nM in assay [1]; 6870 nM in assay [2]; 5460 nM in assay [3]; 7920 nM in assay [4]; 18400 nM in assay [5]; 17600 nM in assay [6]. Moreover, the values for the IC50 in assay [7] and in assay [8] were 24800 nM and 3730 nM, respectively.
With `CCc1cccc2cccc(N3CCc4c(nc(OCC5(CN(C)C)CC5)nc4NCC4CN(c5ncccn5)C4)C3)c12` [Example 561, 2-((1-((dimethylamino)methyl)cyclopropyl)methoxy)-7-(8-ethylnaphthalen-1-yl)-N-((1-(pyrimidin-2-yl)azetidin-3-yl)methyl)-5,6,7,8-tetrahydropyrido[3,4-d]pyrimidin-4-amine], the IC50 stood at 1280 nM in assay [1]; 994 nM in assay [2]; 557 nM in assay [3]; 536 nM in assay [4]; 2190 nM in assay [5]; 1740 nM in assay [6]. Besides, the figures for the half-maximal inhibitory concentration (IC50) in assay [7] and in assay [8] were 25700 nM and 6110 nM, respectively.
Turning to `CCc1cccc2cccc(N3CCc4c(nc(OCC5(CN(C)C)CC5)nc4N4CCOC(c5nnc(C(C)C)o5)C4)C3)c12` (centres unmarked) [Example 562, 1-(1-(((7-(8-ethylnaphthalen-1-yl)-4-(2-(5-isopropyl-1,3,4-oxadiazol-2-yl)morpholino)-5,6,7,8-tetrahydropyrido[3,4-d]pyrimidin-2-yl)oxy)methyl)cyclopropyl)-N,N-dimethylmethanamine], the IC50 in assay [1] was determined as 10700 nM; in assay [2] it was 7970 nM; in assay [3], 4270 nM; in assay [4], 6600 nM; in assay [5], 21700 nM; in assay [6] it was 14000 nM. Also, the half-inhibitory concentration (IC50) in assay [7] amounted to 25900 nM; in assay [8], 6370 nM.
